Source: patent US9018214B2, “Bicyclic heterocycle compounds and their uses in therapy” (Astex Therapeutics Limited, priority 2011, dated 2015)
Counter-ions that a name gives are not always drawn. Like-named read-outs stand apart in the source and are kept apart here.

How the values were obtained:
[1] = target: BIR3 domain of human cIAP-1 (residues 267-363) (Homo sapiens (Human), UniProt Q13490); experiment: cIAP-1 in vitro competitive displacement binding assay (fluorescence polarization; Probe A AVPIK(5&6FAM)-amide or Probe B AbuRPFK(5&6FAM)-amide); details: for inhibition at 0.01 µM / inhibition at […]: 3 h, read-out: IC50 or PI cIAP1: PI
[2] = test system: EVSA-T (human breast carcinoma); experiment: Anti-proliferative activity, Alamar Blue assay, EVSA-T; type: cell-based; details: Homo sapiens, EVSA-T; for EC50: read-out: EVSA-T prolif (EC50)
[3] = target: BIR3 domain of human XIAP (residues 252-350) (Homo sapiens (Human), UniProt P98170); experiment: XIAP in vitro competitive displacement binding assay (fluorescence polarization); details: for IC50: read-out: IC50 or PI Xiap: IC50; for inhibition at 0.04 µM: 1 h, read-out: IC50 or PI Xiap: PI
[4] = Probe B AbuRPFK(5&6FAM)-amide, read-out: IC50 or PI cIAP1: IC50
[5] = read-out: IC50 or PI cIAP1: IC50

Row | SMILES | EC50 ([2]; 72 hours, Alamar Blue) | IC50 [3] | IC50 [1, 4] | EC50 ([2]; 72 h) | also measured
1 | Cc1cnn(C[C@H]2CN[C@H](C)CN2CC(=O)N2CC3(Cc4ccccc4C3)c3ccc(C#N)cc32)c1 [Example 161, 1′-{2-[(2R,5R)-5-Methyl-2-[(4-methyl-1H-pyrazol-1-yl)methyl]piperazin-1-yl]acetyl}-1,1′,2′,3-tetrahydrospiro[indene-2,3′-indole]-6′-carbonitrile] | 1700 nM | 60 nM | 110 nM |  | IC50 [1]: < 1000 nM
2 | C[C@@H]1CN(CC(=O)N2CC(C)(C)c3cnc(Cc4ccccc4)cc32)[C@@H](C(=O)N2CCCC2)CN1 [Example 131, 1-{6-Benzyl-3,3-dimethyl-1H,2H,3H-pyrrolo[3,2-c]pyridin-1-yl}-2-[(2R,5R)-5-methyl-2-[(pyrrolidin-1-yl)carbonyl]piperazin-1-yl]ethan-1-one dihydrochloride] |  | 130 nM |  | 88 nM | inhibition at 0.01 µM [1]: 63%
3 | C[C@@H]1CN(CC(=O)N2CC(C)(C)c3cnc(C(F)(F)c4ccccc4)cc32)[C@@H](CN2C(=O)CCC2=O)CN1 [Example 218, 1-{[(2R,5R)-1-(2-{6-[Difluoro(phenyl)methyl]-3,3-dimethyl-1H,2H,3H-pyrrolo[3,2-c]pyridin-1-yl}-2-oxoethyl)-5-methylpiperazin-2-yl]methyl}pyrrolidine-2,5-dione dihydrochloride] |  | 61 nM |  | 65 nM | inhibition at […] [1]: 78%
4 | CNS(=O)(=O)c1ccc2c(c1)N(C(=O)CN1C[C@@H](C)NC[C@@H]1COC)CC2(C)C [Example 61, 1-[2-((2R,5R)-2-Methoxymethyl-5-methyl-piperazin-1-yl)-acetyl]-3,3-dimethyl-2,3-dihydro-1H-indole-6-sulfonic acid methylamide dihydrochloride salt] |  | 220 nM |  |  | IC50 [1, 5]: 1600 nM; inhibition at 10 µM ([2]; read-out: EVSA-T prolif: % inhibition): 0%
5 | C[C@@H]1CN(CC(=O)N2CC(C)(C)c3ncc(C(F)(F)C4CCC4)cc32)[C@@H](CN2CCCC2=O)CN1 [Example 226, 1-{[(2R,5R)-1-{2-[6-(Cyclobutyldifluoromethyl)-3,3-dimethyl-1H,2H,3H-pyrrolo[3,2-b]pyridin-1-yl]-2-oxoethyl}-5-methylpiperazin-2-yl]methyl}pyrrolidin-2-one dihydrochloride] |  | 46 nM |  | 400 nM | IC50 [1]: < 1000 nM; IC50 [1, 5]: 21 nM
6 | C[C@@H]1CN(CC(=O)N2CC(C)(C)c3ncc(C(F)(F)c4ccccc4)cc32)[C@@H](CN2CC[C@@H](F)C2)CN1 [Example 221, 1-{6-[Difluoro(phenyl)methyl]-3,3-dimethyl-1H,2H,3H-pyrrolo[3,2-b]pyridin-1-yl}-2-[(2R,5R)-2-{[(3R)-3-fluoropyrrolidin-1-yl]methyl}-5-methylpiperazin-1-yl]ethan-1-one dihydrochloride] |  | 73 nM |  | 54 nM | inhibition at […] [1]: 78%
7 | CC[C@H]1CN[C@H](C)CN1CC(=O)N1CC(C)(C)c2cnc(Cc3ccccc3)cc21 [Example 91, 1-{6-Benzyl-3,3-dimethyl-1H,2H,3H-pyrrolo[3,2-c]pyridin-1-yl}-2-[(2S,5R)-2-ethyl-5-methylpiperazin-1-yl]ethan-1-one, hydrochloride salt] | 200 nM | 290 nM | 19 nM |  | 
8 | C[C@@H]1CN(CC(=O)N2CC(C)(C)c3cnc(Cc4ccc(F)cc4F)cc32)[C@@H](Cn2ncccc2=O)CN1 [Example 194, 2-{[(2R,5R)-1-(2-{6-[(2,4-Difluorophenyl)methyl]-3,3-dimethyl-1H,2H,3H-pyrrolo[3,2-c]pyridin-1-yl}-2-oxoethyl)-5-methylpiperazin-2-yl]methyl}-2,3-dihydropyridazin-3-one dihydrochloride] |  | 55 nM |  | 9.8 nM | inhibition at […] [1]: 99%
9 | CCCC(F)(F)c1cnc2c(c1)N(C(=O)CN1C[C@@H](C)NC[C@@H]1CN1C[C@@H](C)O[C@@H](C)C1)CC2(C)C [Example 246, 1-[6-(1,1-Difluorobutyl)-3,3-dimethyl-1H,2H,3H-pyrrolo[3,2-b]pyridin-1-yl]-2-[(2R,5R)-2-{[(2R,6S)-2,6-dimethylmorpholin-4-yl]methyl}-5-methylpiperazin-1-yl]ethan-1-one dihydrochloride] |  | 43 nM |  | 31 nM | inhibition at […] [1]: 76%
10 | C[C@@H]1CN(CC(=O)N2CC(C)(C)c3ncc(Cc4ccc(F)cc4)cc32)[C@@H](CN2C[C@@H](C)O[C@@H](C)C2)CN1 [Example 243, 2-[(2R,5R)-2-{[(2R,6S)-2,6-Dimethylmorpholin-4-yl]methyl}-5-methylpiperazin-1-yl]-1-{6-[(4-fluorophenyl)methyl]-3,3-dimethyl-1H,2H,3H-pyrrolo[3,2-b]pyridin-1-yl}ethan-1-one dihydrochloride] |  | 47 nM |  | 25 nM | inhibition at […] [1]: 100%

Continued, in another order:

Row | EC50 ([2]; 72 hours, Alamar Blue) | IC50 [3] | IC50 [1, 4] | SMILES | EC50 ([2]; 72 h) | also measured
11 | 5700 nM | 470 nM |  | C[C@@H]1CN(CC(=O)N2CCc3cc(F)c(S(=O)(=O)c4ccccc4)cc32)CCN1 [Example 41, 1-(6-Benzenesulfonyl-5-fluoro-2,3-dihydro-indol-1-yl)-2-((R)-3-methyl-piperazin-1-yl)-ethanone] |  | IC50 ([1]; Probe A AVPIK(5&6FAM)-amide, read-out: IC50 or PI cIAP1: IC50): 1300 nM
12 | 13 nM |  |  | C[C@@H]1CN(CC(=O)N2CC(C)(C)c3cnc(Cc4ccccc4F)cc32)[C@@H](CN2CCCC2=O)CN1 [Example 242, 1-{[(2R,5R)-1-(2-{6-[(2-Fluorophenyl)methyl]-3,3-dimethyl-1H,2H,3H-pyrrolo[3,2-c]pyridin-1-yl}-2-oxoethyl)-5-methylpiperazin-2-yl]methyl}pyrrolidin-2-one hydrochloride] |  | inhibition at […] ([1]; Probe B, @ 0.012 μM): 92%; inhibition at 0.04 µM [3]: 65%
13 | 8800 nM | 100 nM | 200 nM | C[C@@H]1CN(CC(=O)N2CC(C)(c3ccccc3)c3ccc(C#N)cc32)[C@@H](Cn2cccn2)CN1 (stereo partly drawn) [Example 143, 3-Methyl-1-{2-[(2R,5R)-5-methyl-2-(1H-pyrazol-1-ylmethyl)piperazin-1-yl]acetyl}-3-phenyl-2,3-dihydro-1H-indole-6-carbonitrile hydrochloride] |  | 
14 | 130 nM | 150 nM |  | COC[C@H]1CN[C@H](C)CN1CC(=O)N1CC(C)(C)c2c[n+]([O-])c(Cc3ccc(F)cc3F)cc21 [Example 166, 6-[(2,4-Difluorophenyl)methyl]-1-{2-[(2R,5R)-2-(methoxymethyl)-5-methylpiperazin-1-yl]acetyl}-3,3-dimethyl-1H,2H,3H-1,5λ^5-pyrrolo[3,2-c][1λ^5]pyridin-5-one hydrochloride] |  | inhibition at […] ([1]; Probe B, @ 0.012 μM): 76%
15 | 32 nM |  |  | CCCC(F)(F)c1cc2c(cn1)C(C)(C)CN2C(=O)CN1C[C@@H](C)NC[C@@H]1CN1CCOCC1 [Example 239, 1-[6-(1,1-Difluorobutyl)-3,3-dimethyl-1H,2H,3H-pyrrolo[3,2-c]pyridin-1-yl]-2-[(2R,5R)-5-methyl-2-(morpholin-4-ylmethyl)piperazin-1-yl]ethan-1-one hydrochloride] |  | inhibition at […] ([1]; Probe B, @ 0.012 μM): 72%; inhibition at 0.04 µM [3]: 52%
16 | 780 nM | 64 nM | 16 nM | COC[C@H]1CN[C@H](C)CN1CC(=O)N1CC2(CN(C(C)=O)C2)c2ccc(Cc3ccccc3)cc21 [Example 76, 1-{1-Acetyl-6′-benzyl-1′,2′-dihydrospiro[azetidine-3,3′-indole]-1′-yl}-2-[(2R,5R)-2-(methoxymethyl)-5-methylpiperazin-1-yl]ethan-1-one hydrochloride salt] |  | 
17 | 25 nM |  | 11 nM | CCC(F)(F)c1cnc2c(c1)N(C(=O)CN1C[C@@H](C)NC[C@@H]1CN1CCOC[C@H]1C)CC2(C)C [Example 186, 1-[6-(1,1-Difluoropropyl)-3,3-dimethyl-1H,2H,3H-pyrrolo[3,2-b]pyridin-1-yl]-2-[(2R,5R)-5-methyl-2-{[(3R)-3-methylmorpholin-4-yl]methyl}piperazin-1-yl]ethan-1-one, a hydrochloride salt] |  | inhibition at 0.04 µM [3]: 59%
18 | 450 nM | 120 nM | 14 nM | C[C@@H]1CN(CC(=O)N2CC(C)(C)c3cnc(Cc4ccccc4)cc32)[C@@H](C(=O)N2CCC2)CN1 [Example 100, 2-[(2R,5R)-2-[(Azetidin-1-yl)carbonyl]-5-methyl-piperazin-1-yl]-1-{6-benzyl-3,3-dimethyl-1H,2H,3H-pyrrolo[3,2-c]pyridin-1-yl}ethan-1-one, hydrochloride salt] |  | 
19 | 510 nM | 240 nM | 24 nM | COC[C@H]1CN[C@H](C)CN1CC(=O)N1CC(C)(C)c2cnc(C(C)c3ccccc3)cc21 (stereo partly drawn) [Example 87, 1-[3,3-Dimethyl-6-(1-phenylethyl)-1H,2H,3H-pyrrolo[3,2-c]pyridin-1-yl]-2-[(2R,5R)-2-(methoxymethyl)-5-methylpiperazin-1-yl]ethan-1-one, hydrochloride salt] |  | IC50 [1]: < 1000 nM
20 | 55 nM | 190 nM |  | COC[C@H]1CN[C@H](C)CN1CC(=O)N1CC(C)(C)c2cnc(Cc3ccc(F)cc3F)cc21 [Example 105, 1-{6-[(2,4-Difluorophenyl)methyl]-3,3-dimethyl-1H,2H,3H-pyrrolo[3,2-c]pyridin-1-yl}-2-[(2R,5R)-2-(methoxymethyl)-5-methylpiperazin-1-yl]ethan-1-one, hydrochloride salt] |  | inhibition at 0.01 µM ([1]; Probe B, @ 0.01 μM): 74%
